Earlier results as cited in US20110293528A1, “ENEMA PREPARATIONS AND THEIR USE” (PHOTOCURE ASA, priority 2008, published 2011).

Columns and labels:
[1] = test system: pre-malignant conditions in the colon (polyps); conditions: enemas of 200 mg HAL in 500 ml or 1000 ml phosphate buffered saline (1.6 and 0.8 mmol per litre)
[2] = test system: rectal adenoma or rectal cancer; conditions: 3.2 mmol per litre HAL, instillation time 30-45 minutes, rest time 30 minutes

Q: With CCCCCCOC(=O)CCC(=O)CN [5-aminolevulinic acid hexyl ester] as the compound, how does the “more polyps detected by PDD than when using white light endoscopic imaging” value [1] read?
A: 28%

Q: And the “result of photodynamic detection” value [2]?
A: satisfactory results
